From patent US5780620A, “Non-reducing oligosaccharides and their production and use” (Kabushiki Kaisha Hayashibara Seibutsu Kagaku Kenkyujo, priority 1993, dated 1998)
Values after ≈ are worked out from the molar mass of the structure shown.

Key:
[1] = Reducing power by the Somogyi-Nelson method; assay type: physicochemical
Experimental: Thereafter these high-purity saccharide preparations were tested for reducing power with the Somogyi-Nelson method and their reducing powers were represented in terms of DE.

[2] = Acute toxicity in mice upon oral administration; assay type: in vivo; details: mouse, in vivo, acute
Experimental: (§1) High-purity maltosyl maltoside, maltotriosyl maltoside and maltotriosyl maltotrioside prepared by the method in Experiment B-1 were tested for acute toxicity in mice upon oral administration.

[3] = test system: mice; test: Acute toxicity in mice upon oral administration; assay type: in vivo; details: for death: maximum administrable dose
Experimental: as §1

[4] = Solubility of crystals in water; assay type: physicochemical; details: purity 99.0%, 25° C. water
Experimental: An alpha-D-maltotriosyl alpha-D-maltotrioside (Substance 3), purity of 97% or higher, prepared by the method in Experiment B-1, was decolored, deionized and concentrated to 70% in usual manner and the concentrate was transferred in a beaker and allowed to stand in 4° C. chilled room for 2 months leading to eduction of crystals. The crystals were centrifugally collected and washed with a minimum amount of water, thus obtaining crystals with a purity of 99.0%.
The physicochemical properties of the crystals as tested were as follows:
Relatively high, about 91 g being soluble in 100 ml of 25° C. water.

[5] = Hygroscopicity of crystalline maltotriosyl maltotrioside; assay type: physicochemical; details: varies depending on purity

DE (reducing power) [1]	Structure (SMILES)	LD50 [2]	acute toxicity [3]	death [3]	other results
0.10	OC[C@H]1O[C@H](O[C@H]2O[C@H](CO)[C@@H](O[C@H]3O[C@H](CO)[C@@H](O[C@H]4O[C@H](CO)[C@@H](O[C@H]5O[C@H](CO)[C@@H](O)[C@H](O)[C@H]5O)[C@H](O)[C@H]4O)[C@H](O)[C@H]3O)[C@H](O)[C@H]2O)[C@H](O)[C@@H](O)[C@@H]1O [PIII, alpha-maltotriosyl trehalose]				
0.83	OC[C@H]1O[C@H](O[C@H]2O[C@H](CO)[C@@H](O[C@H]3O[C@H](CO)[C@@H](O)[C@H](O)[C@H]3O)[C@H](O)[C@H]2O)[C@H](O)[C@@H](O)[C@@H]1O [PI, alpha-glucosyl trehalose]				
	OC[C@H]1O[C@H](O[C@H]2[C@H](O)[C@@H](O)[C@@H](O[C@H]3[C@H](O)[C@@H](O)[C@@H](O[C@H]4O[C@H](CO)[C@@H](O[C@H]5O[C@H](CO)[C@@H](O[C@H]6O[C@H](CO)[C@@H](O)[C@H](O)[C@H]6O)[C@H](O)[C@H]5O)[C@H](O)[C@H]4O)O[C@@H]3CO)O[C@@H]2CO)[C@H](O)[C@@H](O)[C@@H]1O [maltotriosyl maltotrioside, O-alpha-D-glucopyranosyl-(1→4)-O-alpha-D-glucopyranosyl-(1→4)-alpha-D-glucopyranosyl alpha-D-maltotrioside]	≥ 50000 mg/kg	low intoxicity	no death was observed	solubility [4]: ~910 mg/mL (≈ 918 mM); hygroscopicity ([5]; listed as crystalline alpha-D-maltotriosyl alpha-D-maltotrioside): very weak hygroscopicity; hygroscopicity ([5]; listed as crystalline maltotriosyl maltotrioside): substantially non-hygroscopic
0.23	OC[C@H]1O[C@H](O[C@H]2O[C@H](CO)[C@@H](O[C@H]3O[C@H](CO)[C@@H](O[C@H]4O[C@H](CO)[C@@H](O[C@H]5O[C@H](CO)[C@@H](O[C@H]6O[C@H](CO)[C@@H](O[C@H]7O[C@H](CO)[C@@H](O)[C@H](O)[C@H]7O)[C@H](O)[C@H]6O)[C@H](O)[C@H]5O)[C@H](O)[C@H]4O)[C@H](O)[C@H]3O)[C@H](O)[C@H]2O)[C@H](O)[C@@H](O)[C@@H]1O [PV, alpha-maltopentaosyl trehalose]				
	OC[C@H]1O[C@H](O[C@H]2[C@H](O)[C@@H](O)[C@@H](O[C@H]3O[C@H](CO)[C@@H](O[C@H]4O[C@H](CO)[C@@H](O[C@H]5O[C@H](CO)[C@@H](O)[C@H](O)[C@H]5O)[C@H](O)[C@H]4O)[C@H](O)[C@H]3O)O[C@@H]2CO)[C@H](O)[C@@H](O)[C@@H]1O [maltotriosyl maltoside, O-alpha-D-glucopyranosyl-(1→4)-O-alpha-D-glucopyranosyl-(1→4)-alpha-D-glucopyranosyl alpha-D-maltoside]	≥ 50000 mg/kg	low intoxicity	no death was observed	
0.27	OC[C@H]1O[C@H](O[C@H]2O[C@H](CO)[C@@H](O[C@H]3O[C@H](CO)[C@@H](O[C@H]4O[C@H](CO)[C@@H](O[C@H]5O[C@H](CO)[C@@H](O[C@H]6O[C@H](CO)[C@@H](O)[C@H](O)[C@H]6O)[C@H](O)[C@H]5O)[C@H](O)[C@H]4O)[C@H](O)[C@H]3O)[C@H](O)[C@H]2O)[C@H](O)[C@@H](O)[C@@H]1O [PIV, alpha-maltotetraosyl trehalose]				
	OC[C@H]1O[C@H](O[C@H]2[C@H](O)[C@@H](O)[C@@H](O[C@H]3O[C@H](CO)[C@@H](O[C@H]4O[C@H](CO)[C@@H](O)[C@H](O)[C@H]4O)[C@H](O)[C@H]3O)O[C@@H]2CO)[C@H](O)[C@@H](O)[C@@H]1O [maltosyl maltoside, O-alpha-D-glucopyranosyl-(1→4)-alpha-D-glucopyranosyl alpha-D-maltoside]	≥ 50000 mg/kg	low intoxicity	no death was observed	
0.35	OC[C@H]1O[C@H](O[C@H]2O[C@H](CO)[C@@H](O[C@H]3O[C@H](CO)[C@@H](O[C@H]4O[C@H](CO)[C@@H](O)[C@H](O)[C@H]4O)[C@H](O)[C@H]3O)[C@H](O)[C@H]2O)[C@H](O)[C@@H](O)[C@@H]1O [PII, alpha-maltosyl trehalose]				
